Results on one molecule are retold here after paper PMC12323867 (RSC Medicinal Chemistry, 2025).

SMILES strings stand for the structures.

One assay has as its target T1, LSD1 in HCT116 cells (Homo sapiens, UniProt O60341).
T1 construct: host or cells: HCT116
The experiment in a line: LSD1 degradation (LSD1 abundance) by western blot. Type of assay: cell-based. To be noted: HCT116, 0.1–10 μM, 24 hours, LSD1 antibody. As for the experimental part:
Using the same conditions, we also determined the effects of SP2509, 25, 27, 28, 30 and 31 on histone H3 lysine 4 dimethyl (H3K4me2) a validated substrate for LSD1 using a specific antibody for H3K4me2 (Fig. S4 ^†).
Compounds were tested at concentration ranges of 0.2–20 μM and LSD1 abundance was quantified at 24 hours (Fig. S5 ^†). 49, 52 and 54 were also evaluated at 48 and 72 hours. […] We also determined the effects of these compounds on the histone methyl marker H3K4me2 (Fig. S5 and S6 ^†).
2.5 Protocols for LSD1 degradation and histone methylation in HCT116 cells HCT116 human colon carcinoma cells were grown in Dulbecco’s Modified Eagle Medium (DMEM) supplemented with Fetal Bovine Serum (FBS, 10% final concentration) and 1x glutamine/penicillin/streptomycin. Cells were incubated at 37 °C and 5% CO2. Cells were treated […]
untreated (WT) cells were included as controls.
HCT116 cells were seeded into six well plates (400000 cells per well) and after requisite compound treatment time (24h, 48h, 72h) cells were harvested and either snap-frozen in liquid nitrogen or lysed in lysis buffer (50mM Tris-HCl, 150 mM NaCl, 0.5% NP-40, 0.5% Triton X-100 + protease inhibitor) on ice for 30 mins. This was centrifuged (15000 rpm, 4 °C, 15 mins) and the supernatant collected.
H2SO4 (0.4 M, equal volume) was added to the pellets for histone extraction and the tubes incubated overnight at 4 °C. Following this, the histone extract was centrifuged (15000 rpm, 4 °C, 15 mins) and the supernatant collected. Protein concentrations of whole cell extract were quantified via Bradford Assay using BIO-RAD Protein Assay Dye Reagent Concentrate. […]
or an equivalent volume of histone extract loaded per lane, with all extracts dyed with 4x NuPAGE LDS Sample Buffer. PageRuler Plus Prestained Ladder was used as a reference. Gel electrophoresis was carried out at 140 V for 60-90 mins, following which the proteins were transferred onto nitrocellulose membrane at 30 V for 60 mins. Membranes were blocked in LI-COR Intercept Blocking Buffer overnight at RT on a roller, following which the membrane was probed with primary antibodies for 1 h at RT. The membrane was washed with PBS + 0.1% Tween (3 x 10 mins), then incubated with secondary antibodies for 50 mins at RT. The membrane was washed again (PBS Tween 2 x 10 mins, PBS 1 x 10 mins) following which the blot was visualised with the Odyssey Infrared Imaging System. Image processing and quantification was performed with ImageStudio Lite. […]
a-tubulin (mouse) – Sigma, t5168 (1:10000 dilution)

The test system of another assay is H3K4me2 in HCT116 cells. The experiment in a line: Histone methylation H3K4me2 by western blot. To be noted: HCT116, 0.1–10 μM, 24 hours, H3K4me2 antibody. Type of assay: cell-based, human. In general terms: A western blot detects proteins with antibodies after separation by electrophoresis.
The next assay concerns LSD1. The conditions noted are these: evaluated not part of the CoREST complex; read-out: LSD1 IC50; cited from earlier work.

For orientation: IC50 means the concentration at which inhibition is half-maximal. Take `C/C(=N\NC(=O)c1cccc(S(=O)(=O)N2CCOCC2)c1)c1cc(Cl)ccc1O` [SP2509, reference compound]: the “LSD1 abundance (degradation)” value at LSD1 in HCT116 cells is recorded as “no degradation or change in LSD1 levels”. The H3K4me2 abundance entry in the assay with H3K4me2 in HCT116 cells is recorded as “no increase in H3K4me2”. Moreover, the concentration for half-maximal inhibition (IC50) in the assay with LSD1 is 13 nM.
